The source of these data is US5496805A, “Inhibitors of neutral endopeptidase” (priority 1990, dated 1996).

Where a name gives a salt, the structure may show the parent alone. Square brackets hold non-standard residues; d marks the D form. Peptide text beside a SMILES is read from it. Mpa = O=C(O)CCS

The assay has as its target T1, neutral endopeptidase (Rattus norvegicus, UniProt P07861).
T1 sequence (P07861 1-750): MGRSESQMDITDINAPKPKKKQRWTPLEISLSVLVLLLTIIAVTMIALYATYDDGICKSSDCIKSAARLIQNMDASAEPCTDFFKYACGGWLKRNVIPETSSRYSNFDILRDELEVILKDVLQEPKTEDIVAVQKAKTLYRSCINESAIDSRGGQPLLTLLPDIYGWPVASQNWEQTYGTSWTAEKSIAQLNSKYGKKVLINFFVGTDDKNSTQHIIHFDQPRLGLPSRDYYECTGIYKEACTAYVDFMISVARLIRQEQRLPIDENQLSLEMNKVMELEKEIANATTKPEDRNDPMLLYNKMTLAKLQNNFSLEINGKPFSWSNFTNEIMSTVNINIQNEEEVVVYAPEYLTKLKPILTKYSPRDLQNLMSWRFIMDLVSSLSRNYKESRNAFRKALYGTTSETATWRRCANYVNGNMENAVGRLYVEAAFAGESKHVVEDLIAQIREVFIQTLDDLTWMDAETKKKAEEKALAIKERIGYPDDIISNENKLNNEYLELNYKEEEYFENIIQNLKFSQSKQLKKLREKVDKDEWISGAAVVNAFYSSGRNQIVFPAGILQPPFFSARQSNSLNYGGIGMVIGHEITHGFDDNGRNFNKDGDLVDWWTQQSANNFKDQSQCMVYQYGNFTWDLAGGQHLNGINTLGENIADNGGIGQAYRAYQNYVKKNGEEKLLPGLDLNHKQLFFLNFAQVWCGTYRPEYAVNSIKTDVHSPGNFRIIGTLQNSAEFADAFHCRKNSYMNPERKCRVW
Put plainly: biochemical. The conditions noted are these: enzyme purified from rat kidney; Dns-Gly-Phe-Arg 0.5 mM; pH 7.5; 37°, 30 minutes; inhibitor preincubated 10 minutes. As to the method: The in vitro neutral endopeptidase activity is determined using a fluorometric assay procedure. The assay is based upon the cleavage of the fluorescent dansylated tripeptide Dns-Gly-Phe-Arg to form Dns-Gly. The latter is extracted from the acidified mixture by ethyl acetate and is strongly fluorescent.
The incubation mixture employed for the assay contains the substance Dns-Gly-Phe-Arg (0.5 mM), tris(hydroxymethyl)aminomethane -HCl buffer (pH 7.5, 50 mM), an enzyme preparation in 0.05% Triton X-100, and water or inhibitor diluted to a final volume of 0.25 ml. The enzyme preparation is purified from rat kidney according to the procedure described by Almenoff et al. in Biochemistry Vol. 22, p. 590-599 (1983). The inhibitor is preincubated for 10 minutes with the enzyme preparation and buffer before the reaction is initiated by the addition of the substrate. Incubation is carried out at 37° for 30 minutes and the reaction is stopped by the addition of 0.25 ml. 1N HCl and extraction of the Dns-Gly product into 1.5 ml. of ethyl acetate. Relative fluorescent intensity (RFI) of the ethyl acetate extract is measured using a Ferrand Spectofluorometer at excitation and emission wavelengths of 342 and 508 nm., respectively, corrected for the RFI of a zero-time control, and compared with assays lacking inhibitor.
Runs are made at different concentrations of test compound and by use of a mathematical model the IC50 is determined. The IC50 is the concentration of test compound that inhibits activity of the enzyme by 50%.
As usually defined, the IC50 is the concentration needed to halve the response being measured. Higher therefore signals lower potency. `CC(C)CC(CS)C(=O)NCCC(=O)N[C@@H](CCCNC(=N)N)C(=O)O` (mixture of isomers) [Example 58, (±)-N-[N-[2-(Mercaptomethyl)-4-methyl-1-oxopentyl]-β-alanyl]-L-arginine] had an IC50 of 0.095 µM.
The result for `CC(C)CC(CS)C(=O)N[C@@H](C)C(=O)O` (single isomer, unassigned; isomer a) [Example 12, N-[2-(Mercaptomethyl)-4-methyl-1-oxopentyl]-L-alanine (isomer A)] reads 0.0033 µM; that for `O=C(N[C@@H](Cc1ccccc1)C(=O)O)C(CS)Cc1ccccc1` (single isomer, unassigned; isomer a) [Example 31, N-[2,(Mercaptomethyl)-1-oxo-3-phenylpropyl]-L-phenylalanine (isomer A)], 0.0053 µM; that for `O=C(O)C[C@H](Cc1ccccc1)NC(=O)C(CS)Cc1ccccc1` (single isomer, unassigned; isomer a) [Example 47], 0.018 µM.
In turn, `CC(C)CC(CS)C(=O)N[C@@H](C)C(=O)N[C@@H](CCCN=C(N)N)C(=O)O` (single isomer, unassigned; isomer a) [Example 56, N-[N-[2-(Mercaptomethyl)-4-methyl-1-oxopentyl]-L-alanyl]-L-arginine (isomer A)] registered an IC50 of 0.023 µM.
`CC(C)C[C@H](NC(=O)[C@H](Cc1ccccc1)NC(=O)[C@@H]1CCCC[C@H]1S)C(=O)O` (single isomer, unassigned; isomer a) [Example 68, (trans)-N-[N-[(2-Mercaptocyclohexyl)carbonyl]-L-phenylalanyl]-L-leucine (isomer A)] returned a concentration for half-maximal inhibition (IC50) of 1.2 µM.
`CC(C)CC(CS)C(=O)N[C@@H](C)C(=O)O` (single isomer, unassigned; isomer b) [Example 13, N-[2-(Mercaptomethyl)-4-methyl-1-oxopentyl]-L-alanine (isomer B)] yielded an IC50 of 0.0022 µM.
The result for `CCCC[C@H](NC(=O)C(CS)Cc1ccccc1)C(=O)O` (single isomer, unassigned; isomer b) [Example 30, N-[2,(Mercaptomethyl)-1-oxo,3-phenylpropyl]-L-norleucine (isomer B)] reads 0.02 µM; that for `O=C(N[C@@H](Cc1ccccc1)C(=O)O)C(CS)Cc1ccccc1` (single isomer, unassigned; isomer b) [Example 32, N-[2-(Mercaptomethyl-1-oxo-3-phenylpropyl]-L-phenylalanine (isomer B)], 0.0089 µM.
Consider `O=C(O)C[C@H](Cc1ccccc1)NC(=O)C(CS)Cc1ccccc1` (single isomer, unassigned; isomer b) [Example 48], for which inhibition was half-maximal at 0.052 µM (IC50).
As for `CC(C)CC(CS)C(=O)N[C@@H](C)C(=O)N[C@@H](CCCN=C(N)N)C(=O)O` (single isomer, unassigned; isomer b) [Example 57, N-[N-[2-(Mercaptomethlyl)-4-methyl-1-oxopentyl]-L-alanyl]-L-arginine (isomer B)], the half-maximal inhibitory concentration (IC50) turned out to be 0.028 µM.
For `O=C(CCS)N[C@@H](Cc1ccccc1)C(=O)O` [Example 2, N-(3-Mercapto-1-oxopropyl)-L-phenylalanine], half-maximal inhibition (IC50) was put at 0.38 µM.
For the compound `C[C@H](CS)C(=O)N[C@@H](Cc1ccc(O)c(O)c1)C(=O)O` [Example 14, 3-Hydroxy-N-(D-3-mercapto-2-methyl-1-oxopropyl)-L-tyrosine], the 50% inhibitory concentration (IC50) was determined as 0.091 µM.
Next, `C[C@@H](CS)C(=O)N[C@@H](Cc1ccc(O)c(O)c1)C(=O)O` [Example 15, 3-Hydroxy-N-(R-3-mercapto-2-methyl-1-oxopropyl)-L-tyrosine]: 0.03 µM; `CC(C)C[C@H](NC(=O)[C@H](C)CS)C(=O)O` [Example 40, (S),N-(3-Mercapto-2-methyl-1-oxopropyl)-L-leucine]: 0.19 µM.
The compound `C[C@H](CS)C(=O)N[C@H](C(=O)O)[C@@H](C)O` [Example 41, (S)-N-(3-Mercapto-2-methyl-1-oxopropyl)-L-threonine] came in with an IC50 of 0.73 µM.
As to `C[C@H](CS)C(=O)N[C@@H](CC(=O)O)C(=O)O` [Example 42, (S)-N-(3-Mercapto-2-methyl-1-oxopropyl)-L-aspartic acid], the IC50 worked out at 0.036 µM.
As to `CC[C@H](C)[C@H](NC(=O)[C@H](C)CS)C(=O)O` [Example 43, (S)-N-(3-Mercapto-2-methyl-1-oxopropyl)-L-isoleucine], the IC50 came out at 0.064 µM.
For the compound `C[C@H](CS)C(=O)N[C@@H](CC(N)=O)C(=O)O` [Example 44, (S)-N^2-(3-Mercapto-2-methyl-1-oxopropyl)-L-asparagine], the IC50 amounted to 0.22 µM.
The compound `O=C(O)CCCCCCCNC(=O)C(CS)Cc1ccccc1` (centres unmarked) [Example 51, 8-[[2-(Mercaptomethyl)-1-oxo-3-phenylpropyl]amino]-octanoic acid] registered an IC50 of 0.02 µM.
`C[C@H](NC(=O)[C@H](Cc1ccccc1)NC(=O)CS)C(=O)O` [Example 60, N-[N-(Mercaptoacetyl)-L-phenylalanyl]-L-alanine] showed a concentration for half-maximal inhibition (IC50) of 0.031 µM.
Consider `O=C(CS)N[C@@H](Cc1ccccc1)C(=O)N[C@@H](Cc1ccccc1)C(=O)O` [Example 61, N-[N-(Mercaptoacetyl)-L-phenylalanyl]-L-phenylalanine], for which the IC50 was 0.12 µM.
`O=C(CCS)N[C@@H](Cc1ccccc1)C(=O)N[C@@H](Cc1ccccc1)C(=O)O` [Example 62, N-[N-(3-Mercapto-1-oxopropyl)-L-phenylalanyl]-L-phenylalanine] ([Mpa]-Phe-Phe-OH) yielded an IC50 of 0.74 µM.
For `CC(C)C[C@H](NC(=O)CS)C(=O)NCC(=O)O` [Example 63, N-[N-(Mercaptoacetyl)-L-leucyl]glycine], the IC50 was 0.31 µM.
`C[C@H](NC(=O)[C@H](S)Cc1ccccc1)C(=O)N1CCC[C@H]1C(=O)O` [Example 65]: inhibition was half-maximal at 0.062 µM (IC50).
`O=C(O)CC(=O)NC(CS)Cc1ccccc1` (centres unmarked) [Example 69, 3-[[1-(Mercaptomethyl)-2-phenylethyl]amino]-3-oxo-propanoic acid] showed an IC50 of 0.012 µM.
For the compound `O=C(O)CCCCC(=O)NC(CS)Cc1ccccc1` (centres unmarked) [Example 70, 6-[[1-(Mercaptomethyl)-2-phenylethyl]amino]-6-oxohexanoic acid], the concentration for half-maximal inhibition (IC50) turned out to be 0.0031 µM.
As for `O=C(O)CCCCCCC(=O)NC(CS)Cc1ccccc1` (centres unmarked) [Example 71, 8-[[1-(MercaDtomethyl)-2-phenylethyl]amino]-8-oxooctanoic acid], inhibition was half-maximal at 0.014 µM (IC50).
Consider `CC(C)C[C@H](NC(=O)C(Cc1ccccc1)CP(C)(=O)O)C(=O)O` (stereo partly drawn) [Example 74, N-[2-[(hydroxymethylphosphinyl)methyl]-1-oxo-3-phenylpropyl]-L-leucine, dilithium salt], for which the 50% inhibitory concentration (IC50) came to 0.95 µM.
With `O=C(O)CCNC(=O)C(Cc1ccccc1)CP(=O)(O)O` (centres unmarked) [Example 75, 3-[[1-Oxo-2-(phenylmethyl)-3-phosphonopropyl]amino]propanoic acid], the IC50 turned out to be 0.04 µM.
Consider `CC(C)C[C@H](NC(=O)[C@H](Cc1ccccc1)OP(=O)(O)CCc1ccccc1)C(=O)O` [Example 77, N-[(S)-2-[[Hydroxy(2-phenylethy1)phosphinyl]oxy]-1-oxo-3-phenylpropyl]-L-leucine, dilithium salt], for which the IC50 turned out to be 2.2 µM.
The compound `O=C(O)CCNC(=O)[C@H](Cc1ccccc1)N[C@@H](Cc1ccccc1)C(=O)O` [Example 78, 3-[[N-[(S)-1-Carboxy-2-phenylethyl]-L-phenylalanyl]-amino]propanoic acid] showed an IC50 of 0.013 µM.
The compound `O=C(O)CCCCCCNC(=O)[C@H](Cc1ccccc1)N[C@@H](Cc1ccccc1)C(=O)O` [Example 79, 7-[[N-[(S)-l-Carboxy-2-phenylethyl]-L-phenylalanyl]amino]heptanoic acid] registered an IC50 of 0.94 µM.
On to `CC(C)C[C@H](NC(=O)[C@H](Cc1ccccc1)N[C@@H](Cc1ccccc1)C(=O)O)C(=O)O` [Example 80, N-[N-[(S)-l-Carboxy-2-phenylethyl]-L-phenylalanyl]-L-leucine], for which inhibition was half-maximal at 0.33 µM (IC50).
The result for `N=C(N)NCCC[C@H](NC(=O)CNC(=O)C(CS)Cc1ccccc1)C(=O)O` (stereo partly drawn) [Example 82, N-[N-[2-(Mercaptomethyl)-1-oxo-3-phenylpropyl]glycyl]-L-arginine] reads 0.015 µM.
